Where no end group is shown, it is not given here.

This test has as its system PBMCs from HCMV seropositive subjects. The test is described as follows: ex vivo IFN-γ Fluorospot assay. Type of test: cell-based, human. Conditions: 19 HCMV seropositive subjects, individual peptide 10 ug/ml, 20 hr; for No. of subjects responding: IFN-γ; for Magnitude of response: IFN-γ spots (FIG. 1: SFC/10^6 PBMC; no unit in table). How it is done: To define the targets of HCMV-specific T cell epitopes recognized in healthy adults, the inventors screened PBMCs of 19 subjects, 10 males and 9 females, recruited from San Diego blood bank (SDBB). The HCMV seropositivity of all the subjects was confirmed by IgG ELISA (FIG. 6A). A total of 2593 HCMV peptides covering a total of 563 ORFs (1) were tested. However, as many of these predicted ORFs overlapped 100% with others, as they were internal to longer ORFs, these 563 contained 359 completely unique ORFs composed of ˜150“canonical” ORFs, and an additional ˜200 identified by ribosomal RNA profiling (1). These peptides corresponded to predicted dominant epitopes, based on a bioinformatic method that predicts promiscuous binding to HLA class II molecules (40). Each of the ORFs above was covered by multiple predicted epitopes (with a minimum of at least 2), with the exception of very small ORFs (less than 15-20 amino acid residues), in which case at least one peptide was synthetized. The 2593 peptides were arranged in 89 pools of 28-30 15-mer peptides. PBMC reactivity of each of the 89 pools was assayed directly ex vivo using an IFN-γ Fluorospot assay.
For the initial CMV ORF screen, the responses of 19 CMV-seropositive subjects were evaluated. PBMCs were stimulated with 89 pools covering 563 ORFs of HCMV. Each pool comprised of 28-30 15-mer peptides overlapping by 10 residues. PBMCs that were found reactive to a pool were further tested against individual peptides contained in the pool using IFN-γ Fluorospot assay.
PBMC were thawed, washed and counted for viability using the trypan blue exclusion method. 200,000 cells were plated in triplicates and stimulated with pools (2 ug/ml) or peptides (10 ug/ml), PHA (10 ug/ml) or medium containing equivalent amount of DMSO in 96-well plates (Immubilion-P, Millipore) previously coated with anti IFN-γ antibody (1-DIK, Mabtech, Stockholm, Sweden). After 20 hr incubation at 37° C., cells were discarded and wells were washed six times with PBS/0.05% Tween 20 using an automated plate washer and further incubated with IFN-γ antibody (7-B6-1-FS-BAM) for 2 hrs at room temperature. After incubation, wells were washed and incubated with fluorophore conjugated anti-BAM-490 antibody for 1 hr at room temperature. Finally, the plates were washed and incubated with fluorescence enhancer for 15 min, blotted dry and fluorescent spots were counted by computer assisted image analysis (IRIS Fluorospot reader, Mabtech, Sweden).
Each pool or peptide was considered positive compared to the background that had equivalent amount of DMSO based on the following criteria: (i) 20 or more spot forming cells (SFC) per 10^6 PBMC after background subtraction, (ii) the stimulation index greater than 2, and (iii) p<0.05 by student's t test or Poisson distribution test

66 (DPSYVREHGVPIHAD) [compound 66]: the “No. of subjects responding” value is 1 and the Magnitude of response turned out to be 123.
The corresponding values for 139 (PWYPITQARTLELTP) [compound 139] are 2 and 996.
The corresponding values for 68 (EGIMVVYKRNIVAHT) [compound 68] are 1 and 637.
Consider 58 (FLKKMLLCALKGRAS) [compound 58], for which the “No. of subjects responding” value is 1 and the Magnitude of response is 930.
The corresponding values for 138 (AAITVVPVITQSRLA) [compound 138] are 3 and 450.
The corresponding values for “37 (RDVVALVNFLRHLTQ; ends and bridges not checked) [compound 37]” are 1 and 1710.
Regarding 226 (EKYMVLVSHNLDELA) [compound 226], the “No. of subjects responding” value is on record as 1 and the Magnitude of response is reported as 20.
The corresponding values for 170 (VLCCYVLEETSVMLA) [compound 170] are 1 and 93.
Regarding 9 (ALFTHFVGRPRHCRL) [compound 9], the “No. of subjects responding” value turned out to be 1 and the Magnitude of response came to 57.
The corresponding values for 99 (LFIIAFFSREPTKDL) [compound 99] are 1 and 190.
On to “51 (GPGFMRYQLIVLIGQ; ends and bridges not checked) [compound 51]”, for which the “No. of subjects responding” value was 1 and the Magnitude of response was 3167.
As for 169 (EERDKVLTHIDHIFM) [compound 169], the “No. of subjects responding” value is given as 2 and the Magnitude of response was found to be 107.
The corresponding values for 143 (VVRKYWTFTNPNRIL) [compound 143] are 3 and 16876.
2 (RYNALTVRSRDSLLL) [compound 2]: the “No. of subjects responding” value is recorded as 2 and the Magnitude of response came to 204.
The corresponding values for 207 (RWQFAVCAASKTATR) [compound 207] are 1 and 50.
In the case of 88 (SLLILVVLLLIYRCC) [compound 88], the “No. of subjects responding” value came to 1 and the Magnitude of response is given as 23.
The corresponding values for 10 (MLGIRAMLVMLDYYW) [compound 10] are 1 and 350.
Consider 172 (FAQYILGADPLRVCS) [compound 172], for which the “No. of subjects responding” value came to 1 and the Magnitude of response worked out at 30.
Take 8 (AITLFFFLLALRIPQ) [compound 8]: the “No. of subjects responding” value was 1 and the Magnitude of response is recorded as 207.
72 (QLMPDDYSNTHSTRY) [compound 72]: the “No. of subjects responding” value is 5 and the Magnitude of response worked out at 45517.
For the substance 179 (VMVRIFSTNQGGFML) [compound 179], the “No. of subjects responding” value was 2 and the Magnitude of response came out at 3560.
The corresponding values for “13 (LLAVTLTVALAAPSQ; ends and bridges not checked) [compound 13]” are 2 and 6420.
Regarding 85 (RVGITIQQLNVYHQL) [compound 85], the “No. of subjects responding” value is 1 and the Magnitude of response came to 963.
The corresponding values for 166 (RVDMVRHRIKEHMLK) [compound 166] are 2 and 250.
The corresponding values for 157 (HLGWQTLSNHVIRRL) [compound 157] are 1 and 127.
For 168 (CSPDEIMSYAQKIFK) [compound 168], the “No. of subjects responding” value was determined as 2 and the Magnitude of response is listed as 194.
The corresponding values for 75 (GLVVFWQGIKQKSLV) [compound 75] are 1 and 53.
As to 31 (ARNLMEFARVGLRAV) [compound 31], the “No. of subjects responding” value worked out at 1 and the Magnitude of response was 1450.
With 197 (DRLSTLAATMCMFDY) [compound 197], the “No. of subjects responding” value is 1 and the Magnitude of response is given as 53.
For 223 (TDCWPFEVAPAARLA) [compound 223], the “No. of subjects responding” value worked out at 2 and the Magnitude of response was found to be 1637.
The corresponding values for 165 (LVKQIKVRVDMVRHR) [compound 165] are 3 and 580.
The corresponding values for 232 (ITFCLYVGQFLAYVR) [compound 232] are 1 and 27.
Turning to “4 (GLWVSSYLVRRPMTI; ends and bridges not checked) [compound 4]”, the “No. of subjects responding” value amounted to 2 and the Magnitude of response amounted to 890.
The corresponding values for 63 (AFKLDLLRMIAVSRT) [compound 63] are 2 and 477.
With “133 (MLIQQYVLSQYYIKK; ends and bridges not checked) [compound 133]”, the “No. of subjects responding” value is recorded as 1 and the Magnitude of response came out at 20.
The corresponding values for 7 (MRTVPVTKLYTSRMV) [compound 7] are 1 and 5677.
On to 181 (SPVAAELPHPSPAPM) [compound 181], for which the “No. of subjects responding” value stood at 2 and the Magnitude of response was determined as 166.
The corresponding values for “136 (VRSLAVDAQHAAKRV; ends and bridges not checked) [compound 136]” are 1 and 53.
The corresponding values for 154 (RCCTLRFRRRCRARC) [compound 154] are 2 and 713.
The corresponding values for “132 (AREFLLSHDAALFRA; ends and bridges not checked) [compound 132]” are 1 and 23.
Turning to 162 (VCLILSFSIVTAALW) [compound 162], the “No. of subjects responding” value is listed as 1 and the Magnitude of response is 43.
Take 55 (RRRFKVCDVGRRHII) [compound 55]: the “No. of subjects responding” value stood at 1 and the Magnitude of response was found to be 63.
Consider 11 (PSVRMDFRARRPLRR) [compound 11], for which the “No. of subjects responding” value is listed as 3 and the Magnitude of response amounted to 1740.
The corresponding values for “49 (GRLMEVRQRNGRLRR; ends and bridges not checked) [compound 49]” are 1 and 30.
The corresponding values for 201 (TAYKAFLWKYAKKLN) [compound 201] are 1 and 503.
The corresponding values for 152 (LPLCSTARLRLAPRR) [compound 152] are 1 and 467.
As for 173 (EAIVAYTLATAGASS) [compound 173], the “No. of subjects responding” value was determined as 3 and the Magnitude of response turned out to be 19333.
Turning to 167 (LRRKMMYMCYRNIEF) [compound 167], the “No. of subjects responding” value worked out at 6 and the Magnitude of response worked out at 1697.
The corresponding values for 59 (MPVQRLTVNVARCVF) [compound 59] are 1 and 20.
The corresponding values for 216 (VSVLYFMPSEPGSAH) [compound 216] are 1 and 177.
The corresponding values for 227 (PRLHCLVTTRSSTRE) [compound 227] are 1 and 1277.
On to 89 (LSYMKYHHLHGLPVN) [compound 89], for which the “No. of subjects responding” value is 3 and the Magnitude of response is 879.
With 73 (NLNCMVTITTARSKY) [compound 73], the “No. of subjects responding” value turned out to be 2 and the Magnitude of response turned out to be 4810.

Source of the values: US20250332249A1, “CYTOM[…] CELL EPITOPES AND USES THEREOF” (LA JOLLA INSTITUTE FOR IMMUNOLOGY, priority 2021, published 2025).
